# Test results from PMC11397024, “Strategic Fluorination to Achieve a Potent, Selective, Metabolically Stable, and Orally Bioavailable Inhibitor of CSNK2” (Molecules, 2024).
# Legend:
# Experiment in all cases: NanoBRET K192
# Format in all cases: cell-based
# [1] = molecular target: T1, NEK11 (Homo sapiens, UniProt Q8NG66); details: HEK293
# T1 construct: purchased Promega (NanoBRET Target Engagement K192 Kinase Selectivity System)
# Procedure: (§1) The K192 selectivity assay was run according to the Draft Promega technical manual, NanoBRET^TM Target Engagement K192 Kinase Selectivity System. Reagents were supplied by Promega (Promega NP 4101). For the assay, DNA from the prepared kinase vector panel plates A and B were mixed with Fugene in 96-well plates (Corning 3917) and incubated at room temperature for 30 min. The NanoLuc® Low control vector pNL1.1.CMV [Nluc/CMV] Vector (Cat.# N1091) and the transfection control vector NanoLuc®-HIPK2 Fusion Vector (Cat.# NV3221) were used as controls.
# (§2) HEK293 cells were grown to 75–95% confluency in DMEM (Gibco 11995-065) supplemented with FBS (Avantor 97068-085) at 37 °C in […]. On the first day of the assay, cells were harvested and resuspended in Opti-MEM (Gibco 11058-021) supplemented with 1% FBS (Avantor 97068-085) at 2.5 × 10^5 cells per mL. A volume of 60 μL of cell suspension was mixed with 10 μL of prepared DNA (10X concentration) and 30 μL of Fugene (30 μL/mL in Opti-MEM) as outlined by Promega and incubated overnight at 37 °C in a 5% CO2 incubator.
# (§3) On day two of the assay, 5 μL of 20X K10 tracer was prepared and added at concentrations recommended by Promega. Then, 10 μL of test compounds at 100 μM in Opti-MEM (diluted from a 10 mM solution in DMSO) was added to the test wells while an equivalent volume of Opti-MEM was added to the high-control wells. Plates were kept at 37 °C in a 5% CO2 incubator for two hours. After two hours, plates were allowed to equilibrate to room temperature for 15 min. A solution of 3X Complete Substrate plus Inhibitor Solution was freshly prepared, consisting of a 1:166 dilution of NanoBRET™ Nano-Glo® Substrate plus a 1:500 dilution of Extracellular NanoLuc® Inhibitor in Opti-MEM® medium without serum or phenol red. A 50 μL volume of the 3X Complete Substrate plus Inhibitor Solution was added to each assay well, including control wells. After 2–3 min, the plate was shaken at 300 RPM for 10 s, and the donor emission wavelength (450 nm) and acceptor emission wavelength (610 nm) were measured using the Glomax® Discover System.
# (§4) As a quality check, the donor signal-to-background ratio was calculated for each individual kinase by dividing the mean donor signal for each kinase by the mean donor signal for the signal-to-background control wells. Fractional occupancy of the test drug for each kinase was determined using the following formula:Occupancy (%) = [1 − (Sample − Bottom)/(Top − Bottom)] × 100 where
# [2] = molecular target: T2, RIOK2 (Homo sapiens, UniProt Q9BVS4); details: HEK293
# T2 construct: purchased Promega (NanoBRET Target Engagement K192 Kinase Selectivity System)
# Procedure: as §1, §2, §3, §4
# [3] = molecular target: T3, NTRK1v1 (Homo sapiens, UniProt P04629); details: HEK293
# T3 construct: purchased Promega (NanoBRET Target Engagement K192 Kinase Selectivity System)
# Procedure: as §1, §2, §3, §4
# [4] = molecular target: T4, STK3 (Homo sapiens, UniProt Q13188); details: HEK293
# T4 construct: purchased Promega (NanoBRET Target Engagement K192 Kinase Selectivity System)
# Procedure: as §1, §2, §3, §4
# [5] = molecular target: T5, RON (Homo sapiens, UniProt Q04912); details: HEK293
# T5 construct: purchased Promega (NanoBRET Target Engagement K192 Kinase Selectivity System)
# Procedure: as §1, §2, §3, §4
# [6] = molecular target: T6, FGFR1 (Homo sapiens, UniProt P11362); details: HEK293
# T6 construct: purchased Promega (NanoBRET Target Engagement K192 Kinase Selectivity System)
# Procedure: as §1, §2, §3, §4
# [7] = molecular target: T7, ITK (Homo sapiens, UniProt Q08881); details: HEK293
# T7 construct: purchased Promega (NanoBRET Target Engagement K192 Kinase Selectivity System)
# Procedure: as §1, §2, §3, §4
# [8] = molecular target: T8, MUSK (Homo sapiens, UniProt O15146); details: HEK293
# T8 construct: purchased Promega (NanoBRET Target Engagement K192 Kinase Selectivity System)
# Procedure: as §1, §2, §3, §4
# [9] = molecular target: T9, PHKG1 (Homo sapiens, UniProt Q16816)
# T9 construct: purchased Promega (NanoBRET Target Engagement K192 Kinase Selectivity System)
# Procedure: as §1, §2, §3, §4
# [10] = molecular target: T10, PAK6 (Homo sapiens, UniProt Q9NQU5); details: HEK293
# T10 construct: purchased Promega (NanoBRET Target Engagement K192 Kinase Selectivity System)
# Procedure: as §1, §2, §3, §4
# [11] = molecular target: T11, BRAF(V600E) (Homo sapiens, UniProt P15056, V600E); details: HEK293
# T11 construct: purchased Promega (NanoBRET Target Engagement K192 Kinase Selectivity System)
# Procedure: as §1, §2, §3, §4
# [12] = molecular target: T12, CDK17 + Y (Homo sapiens, UniProt Q00537); details: HEK293
# T12 construct: purchased Promega (NanoBRET Target Engagement K192 Kinase Selectivity System)
# Procedure: as §1, §2, §3, §4
# [13] = molecular target: T13, LCK (Homo sapiens, UniProt P06239); details: HEK293
# T13 construct: purchased Promega (NanoBRET Target Engagement K192 Kinase Selectivity System)
# Procedure: as §1, §2, §3, §4
# [14] = molecular target: T14, NUAK1 (Homo sapiens, UniProt O60285); details: HEK293
# T14 construct: purchased Promega (NanoBRET Target Engagement K192 Kinase Selectivity System)
# Procedure: as §1, §2, §3, §4
# [15] = molecular target: T15, FGFR2 (Homo sapiens, UniProt P21802); details: HEK293
# T15 construct: host or cells: HEK293
# Procedure: as §1, §2, §3, §4
# [16] = molecular target: T16, EPHA6 (Homo sapiens, UniProt Q9UF33); details: HEK293
# T16 construct: purchased Promega (NanoBRET Target Engagement K192 Kinase Selectivity System)
# Procedure: as §1, §2, §3, §4
# [17] = molecular target: T17, TXK (Homo sapiens, UniProt P42681); details: HEK293
# T17 construct: host or cells: HEK293
# Procedure: as §1, §2, §3, §4
# [18] = molecular target: T18, LATS1 (Homo sapiens, UniProt O95835); details: HEK293
# T18 construct: purchased Promega (NanoBRET Target Engagement K192 Kinase Selectivity System)
# Procedure: as §1, §2, §3, §4
# [19] = molecular target: T19, ABL2 (Homo sapiens, UniProt P42684); details: HEK293
# T19 construct: purchased Promega (NanoBRET Target Engagement K192 Kinase Selectivity System)
# Procedure: as §1, §2, §3, §4
# [20] = molecular target: T20, LTK (Homo sapiens, UniProt P29376); details: HEK293
# T20 construct: purchased Promega (NanoBRET Target Engagement K192 Kinase Selectivity System)
# Procedure: as §1, §2, §3, §4
# [21] = molecular target: T21, STK4 (Homo sapiens, UniProt Q13043); details: HEK293
# T21 construct: purchased Promega (NanoBRET Target Engagement K192 Kinase Selectivity System)
# Procedure: as §1, §2, §3, §4
# [22] = molecular target: T22, AURKC (Homo sapiens, UniProt Q9UQB9); details: HEK293
# T22 construct: purchased Promega (NanoBRET Target Engagement K192 Kinase Selectivity System)
# Procedure: as §1, §2, §3, §4
# [23] = molecular target: T23, IKBKE (Homo sapiens, UniProt Q14164); details: HEK293
# T23 construct: purchased Promega (NanoBRET Target Engagement K192 Kinase Selectivity System)
# Procedure: as §1, §2, §3, §4
# [24] = molecular target: T24, MERTK (Homo sapiens, UniProt Q12866); details: HEK293
# T24 construct: purchased Promega (NanoBRET Target Engagement K192 Kinase Selectivity System)
# Procedure: as §1, §2, §3, §4
# [25] = molecular target: T25, CDK2 + E1 (Homo sapiens, UniProt P24941); details: HEK293
# T25 construct: purchased Promega (NanoBRET Target Engagement K192 Kinase Selectivity System)
# Procedure: as §1, §2, §3, §4
# [26] = molecular target: T26, ULK1 (Homo sapiens, UniProt O75385); details: HEK293
# T26 construct: purchased Promega (NanoBRET Target Engagement K192 Kinase Selectivity System)
# Procedure: as §1, §2, §3, §4
# [27] = molecular target: T27, STK16 (Homo sapiens, UniProt O75716); details: HEK293
# T27 construct: purchased Promega (NanoBRET Target Engagement K192 Kinase Selectivity System)
# Procedure: as §1, §2, §3, §4
# [28] = molecular target: T28, SIK3 (Homo sapiens, UniProt Q9Y2K2); details: HEK293
# T28 construct: purchased Promega (NanoBRET Target Engagement K192 Kinase Selectivity System)
# Procedure: as §1, §2, §3, §4
# T9 sequence (Q16816 whole entry): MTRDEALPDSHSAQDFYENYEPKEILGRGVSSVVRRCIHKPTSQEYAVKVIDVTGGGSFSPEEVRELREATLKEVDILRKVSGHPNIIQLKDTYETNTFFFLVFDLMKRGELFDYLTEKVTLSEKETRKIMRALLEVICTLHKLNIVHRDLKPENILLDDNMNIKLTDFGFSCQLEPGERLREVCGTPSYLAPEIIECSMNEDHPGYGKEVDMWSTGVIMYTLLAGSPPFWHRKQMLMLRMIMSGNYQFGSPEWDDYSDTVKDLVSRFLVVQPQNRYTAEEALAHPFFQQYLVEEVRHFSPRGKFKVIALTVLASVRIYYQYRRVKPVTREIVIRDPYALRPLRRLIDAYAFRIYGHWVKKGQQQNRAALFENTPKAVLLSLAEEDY
# T6 sequence (P11362 22-822): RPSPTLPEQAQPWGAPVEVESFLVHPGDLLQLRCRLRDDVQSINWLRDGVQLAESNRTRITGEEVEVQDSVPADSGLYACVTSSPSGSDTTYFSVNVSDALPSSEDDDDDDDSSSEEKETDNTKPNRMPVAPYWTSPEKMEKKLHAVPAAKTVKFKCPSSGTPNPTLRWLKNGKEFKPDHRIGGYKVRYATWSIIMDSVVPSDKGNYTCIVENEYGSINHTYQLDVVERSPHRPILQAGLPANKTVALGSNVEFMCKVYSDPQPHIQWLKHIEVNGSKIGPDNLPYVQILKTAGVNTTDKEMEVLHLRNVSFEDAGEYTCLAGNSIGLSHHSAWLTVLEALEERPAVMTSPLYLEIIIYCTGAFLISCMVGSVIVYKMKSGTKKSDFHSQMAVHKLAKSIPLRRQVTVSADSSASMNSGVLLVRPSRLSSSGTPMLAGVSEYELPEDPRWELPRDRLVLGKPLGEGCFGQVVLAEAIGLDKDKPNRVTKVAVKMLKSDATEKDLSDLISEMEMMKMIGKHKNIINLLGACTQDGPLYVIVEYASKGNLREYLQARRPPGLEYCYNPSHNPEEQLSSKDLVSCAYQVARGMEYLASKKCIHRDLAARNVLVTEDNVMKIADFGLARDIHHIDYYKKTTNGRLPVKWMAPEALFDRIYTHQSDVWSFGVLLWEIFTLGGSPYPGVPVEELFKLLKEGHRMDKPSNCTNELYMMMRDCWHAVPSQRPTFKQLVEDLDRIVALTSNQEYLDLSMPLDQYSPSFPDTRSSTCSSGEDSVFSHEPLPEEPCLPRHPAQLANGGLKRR
# T12 sequence (Q00537 whole entry): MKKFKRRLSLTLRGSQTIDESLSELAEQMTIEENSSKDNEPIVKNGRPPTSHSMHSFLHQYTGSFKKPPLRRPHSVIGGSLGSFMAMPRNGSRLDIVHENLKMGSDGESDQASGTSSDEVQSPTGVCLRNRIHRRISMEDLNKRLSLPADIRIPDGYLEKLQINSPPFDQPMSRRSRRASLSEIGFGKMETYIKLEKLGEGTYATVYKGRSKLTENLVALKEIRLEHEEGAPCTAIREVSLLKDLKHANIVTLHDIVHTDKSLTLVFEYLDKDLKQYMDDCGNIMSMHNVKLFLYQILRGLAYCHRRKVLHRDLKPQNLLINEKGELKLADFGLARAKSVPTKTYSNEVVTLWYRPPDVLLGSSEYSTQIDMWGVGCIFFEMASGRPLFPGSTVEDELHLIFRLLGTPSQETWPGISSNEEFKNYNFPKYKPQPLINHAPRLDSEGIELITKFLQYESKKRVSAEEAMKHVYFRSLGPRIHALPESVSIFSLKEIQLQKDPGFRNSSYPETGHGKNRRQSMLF
# T12 sequence (Q8ND76 whole entry partner): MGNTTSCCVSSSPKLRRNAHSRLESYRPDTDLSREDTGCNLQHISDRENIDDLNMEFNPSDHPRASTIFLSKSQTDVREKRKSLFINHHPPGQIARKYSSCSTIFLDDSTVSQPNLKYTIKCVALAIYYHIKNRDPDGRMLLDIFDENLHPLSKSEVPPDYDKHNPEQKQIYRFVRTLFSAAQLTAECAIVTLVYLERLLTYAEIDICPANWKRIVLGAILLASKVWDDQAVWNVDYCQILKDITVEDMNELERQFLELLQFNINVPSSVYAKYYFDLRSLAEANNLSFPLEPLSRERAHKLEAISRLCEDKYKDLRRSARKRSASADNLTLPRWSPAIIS
# T16 sequence (Q9UF33 23-1036): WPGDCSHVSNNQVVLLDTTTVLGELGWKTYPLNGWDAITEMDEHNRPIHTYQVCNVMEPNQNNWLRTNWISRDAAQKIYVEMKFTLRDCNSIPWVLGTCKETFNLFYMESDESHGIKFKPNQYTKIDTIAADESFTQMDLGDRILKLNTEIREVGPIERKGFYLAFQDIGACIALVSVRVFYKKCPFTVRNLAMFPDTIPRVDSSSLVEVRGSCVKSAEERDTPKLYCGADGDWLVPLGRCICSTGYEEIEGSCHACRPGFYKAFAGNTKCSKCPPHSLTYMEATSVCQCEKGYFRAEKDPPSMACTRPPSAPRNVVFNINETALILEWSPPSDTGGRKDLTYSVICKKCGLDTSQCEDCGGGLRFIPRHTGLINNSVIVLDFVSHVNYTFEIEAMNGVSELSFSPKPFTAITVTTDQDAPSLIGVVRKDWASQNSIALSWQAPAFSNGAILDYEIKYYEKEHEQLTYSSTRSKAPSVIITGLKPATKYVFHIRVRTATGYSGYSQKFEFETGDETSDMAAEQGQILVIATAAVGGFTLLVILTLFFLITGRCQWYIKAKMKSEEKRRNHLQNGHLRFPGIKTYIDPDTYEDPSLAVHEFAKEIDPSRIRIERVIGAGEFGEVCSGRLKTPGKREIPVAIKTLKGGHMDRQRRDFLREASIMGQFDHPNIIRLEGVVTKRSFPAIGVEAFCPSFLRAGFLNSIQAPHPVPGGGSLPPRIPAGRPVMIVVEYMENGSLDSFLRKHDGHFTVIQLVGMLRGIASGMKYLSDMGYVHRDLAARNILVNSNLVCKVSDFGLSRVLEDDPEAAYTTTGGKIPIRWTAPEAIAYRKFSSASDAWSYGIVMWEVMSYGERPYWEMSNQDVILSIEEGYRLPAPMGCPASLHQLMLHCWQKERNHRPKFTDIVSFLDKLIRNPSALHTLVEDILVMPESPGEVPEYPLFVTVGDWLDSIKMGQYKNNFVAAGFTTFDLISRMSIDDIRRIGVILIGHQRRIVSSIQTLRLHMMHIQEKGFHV
# T19 sequence (P42684 whole entry): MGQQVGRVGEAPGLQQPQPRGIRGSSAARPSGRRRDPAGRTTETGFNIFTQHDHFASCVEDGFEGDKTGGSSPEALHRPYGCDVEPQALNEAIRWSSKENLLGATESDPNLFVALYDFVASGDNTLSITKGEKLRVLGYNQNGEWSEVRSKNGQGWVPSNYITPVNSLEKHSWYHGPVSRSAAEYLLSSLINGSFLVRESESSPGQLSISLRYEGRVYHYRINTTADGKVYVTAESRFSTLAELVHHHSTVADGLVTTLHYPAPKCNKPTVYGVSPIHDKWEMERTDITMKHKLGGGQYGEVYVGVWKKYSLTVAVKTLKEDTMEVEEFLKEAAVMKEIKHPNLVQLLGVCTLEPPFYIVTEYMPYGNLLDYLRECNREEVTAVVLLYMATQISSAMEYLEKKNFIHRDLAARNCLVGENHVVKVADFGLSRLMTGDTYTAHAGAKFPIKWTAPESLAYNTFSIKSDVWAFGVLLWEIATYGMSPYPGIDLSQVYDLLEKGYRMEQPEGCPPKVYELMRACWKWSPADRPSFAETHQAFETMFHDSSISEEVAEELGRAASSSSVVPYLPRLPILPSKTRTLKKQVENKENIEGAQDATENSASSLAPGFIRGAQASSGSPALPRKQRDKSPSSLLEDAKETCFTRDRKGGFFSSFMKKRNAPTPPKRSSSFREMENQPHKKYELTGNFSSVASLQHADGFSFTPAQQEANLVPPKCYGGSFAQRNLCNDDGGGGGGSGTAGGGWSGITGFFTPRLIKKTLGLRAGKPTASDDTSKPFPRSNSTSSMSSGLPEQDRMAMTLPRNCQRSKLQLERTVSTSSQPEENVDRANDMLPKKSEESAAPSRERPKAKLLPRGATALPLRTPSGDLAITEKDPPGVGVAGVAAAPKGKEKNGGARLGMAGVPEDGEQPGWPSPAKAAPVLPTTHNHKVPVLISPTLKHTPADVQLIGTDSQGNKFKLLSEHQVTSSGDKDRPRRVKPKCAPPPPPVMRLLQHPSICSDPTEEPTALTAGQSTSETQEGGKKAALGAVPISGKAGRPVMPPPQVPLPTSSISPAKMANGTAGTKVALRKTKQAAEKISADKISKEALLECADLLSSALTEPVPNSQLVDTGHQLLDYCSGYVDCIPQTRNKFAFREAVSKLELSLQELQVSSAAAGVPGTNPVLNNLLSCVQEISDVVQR
# T4 sequence (Q13188 whole entry): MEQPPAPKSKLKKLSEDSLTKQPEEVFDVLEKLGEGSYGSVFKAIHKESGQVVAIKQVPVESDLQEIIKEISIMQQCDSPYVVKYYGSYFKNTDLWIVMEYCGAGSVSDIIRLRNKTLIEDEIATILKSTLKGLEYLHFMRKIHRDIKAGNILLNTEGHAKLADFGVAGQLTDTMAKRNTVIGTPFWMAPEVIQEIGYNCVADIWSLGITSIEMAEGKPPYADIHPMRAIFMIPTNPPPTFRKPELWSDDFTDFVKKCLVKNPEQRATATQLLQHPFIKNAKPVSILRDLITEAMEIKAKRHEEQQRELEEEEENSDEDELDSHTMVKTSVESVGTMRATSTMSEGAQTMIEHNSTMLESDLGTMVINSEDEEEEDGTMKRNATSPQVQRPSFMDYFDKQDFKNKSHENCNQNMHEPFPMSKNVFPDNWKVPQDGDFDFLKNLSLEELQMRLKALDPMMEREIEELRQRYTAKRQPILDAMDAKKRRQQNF
# T27 sequence (O75716 whole entry): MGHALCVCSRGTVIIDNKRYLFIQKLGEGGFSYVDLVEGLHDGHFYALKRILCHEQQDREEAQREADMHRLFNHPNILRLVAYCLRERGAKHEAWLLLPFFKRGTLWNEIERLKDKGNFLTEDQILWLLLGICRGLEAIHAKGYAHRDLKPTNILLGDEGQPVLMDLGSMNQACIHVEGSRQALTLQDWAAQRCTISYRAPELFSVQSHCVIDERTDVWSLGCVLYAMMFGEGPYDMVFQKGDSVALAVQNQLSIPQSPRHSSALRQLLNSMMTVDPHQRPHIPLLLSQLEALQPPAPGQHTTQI
compound,measurement,setting,value
"CCC(=O)Nc1cc(Nc2cc(NC3CC3)n3ncc(C#N)c3n2)c(F)cc1N1CCC[C@H](NC)C1 [Compound 2, (S)-N-(5-((3-cyano-7-(cyclopropylamino)pyrazolo[1,5-a]pyrimidin-5-yl)amino)-4-fluoro-2-(3-(methylamino)piperidin-1-yl)phenyl)propionamide]",receptor occupancy at 10 µM,[1],19.1%
same,receptor occupancy at 10 µM,[2],-1.8%
same,receptor occupancy at 10 µM,[3],4.6%
same,receptor occupancy at 10 µM,[4],5.2%
same,receptor occupancy at 10 µM,[5],7.6%
same,receptor occupancy at 10 µM,[6],10.4%
same,receptor occupancy at 10 µM,[7],11.9%
same,receptor occupancy at 10 µM,[8],-0.5%
same,receptor occupancy at 10 µM,"[9]; HEK293, PHKG1",55.3%
same,% occupancy at 10 μM,"[9]; PHKG1, HEK293",55%
same,receptor occupancy at 10 µM,[10],15.3%
same,receptor occupancy at 10 µM,[11],5.3%
same,receptor occupancy at 10 µM,[12],20.2%
same,receptor occupancy at 10 µM,[13],4.9%
same,receptor occupancy at 10 µM,[14],-1.7%
same,receptor occupancy at 10 µM,[15],-2.9%
same,receptor occupancy at 10 µM,[16],7.3%
same,receptor occupancy at 10 µM,[17],-3.2%
same,receptor occupancy at 10 µM,[18],-0.4%
same,receptor occupancy at 10 µM,[19],9.4%
same,receptor occupancy at 10 µM,[20],4.2%
same,receptor occupancy at 10 µM,[21],6.9%
same,receptor occupancy at 10 µM,[22],4.5%
same,receptor occupancy at 10 µM,[23],23.4%
same,receptor occupancy at 10 µM,[24],4.2%
same,receptor occupancy at 10 µM,[25],15.9%
same,receptor occupancy at 10 µM,[26],25.2%
same,receptor occupancy at 10 µM,[27],16.4%
same,receptor occupancy at 10 µM,[28],2.7%
